These results are taken from patent US12391647B2, “Benzamide compound and preparation method, use, and pharmaceutical composition thereof” (INSTITUTE OF MATERIA MEDICA, CHINESE ACADEMY OF MEDICAL …, priority 2018, dated 2025).

The subject of experiment [1] is human prostate cancer cell DU145. Description: MTT assay, survival rate of tumor cells (antiproliferative activity). The format is cell-based. To be noted: DU-145, 72 h, read-out: Antiproliferative activity against human prostate cancer cell DU145, IC50. As for the experimental part:
DU145 cells (human prostate cancer cells) in logarithmic growth phase were digested with 0.25% trypsin-EDTA to prepare single cell suspension, which was inoculated into 96-well plate overnight according to 1500 cells/well/100 μL, and fresh medium containing different concentrations of compounds to be tested and corresponding solvent control was added, and 100 μL (DMSO final concentration <0.1%) was added to each well, and the 96-well plate was further cultured at 37° C. for 72 h. 20 μL of freshly prepared PBS solution containing 5 mg/mL MTT was added to each well, and the 96-well plate was further cultured for 4 h. After the supernatant was discarded, 180 μL of DMSO was added to each well to dissolve the MTT formazan precipitate. After the 96-well plate was shaked and mixed by a micro oscillator, the optical density (OD) at the detection wavelength of 570 nm was measured. With DMSO-treated tumor cells as the control group, the inhibition rate on the growth of tumor cells of the compound to be tested was calculated from the following formula, and the IC50 was calculated according to the median-effect equation. Inhibition rate (%)=(average OD value of control group-average OD value of dosing group)/average OD value of control group×100%
A general note: Tetrazolium assays rely on reduction of a dye to a coloured formazan, in cell work by metabolically active cells.

The subject of another experiment is STAT3 transcription. Kind of experiment: STAT3 specific luciferase double reporter gene experiment in DU145 cells. The format is cell-based, human. The following applies: for STAT3 transcription inhibition activity: DU145, STAT3 specific luciferase double reporter; for IC50: Homo sapiens, DU-145, DU145 with high STAT3 expression, 24 h. As for the experimental part: The luciferase plasmids STAT3-TA-Luc and pGMLR-TK were transiently co-transfected into DU145 cells by Lipofectamine 3000. After staying overnight, different concentrations of compounds to be tested were added and cultured for 24 hours. The supernatant was discarded, and the residue was washed twice with PBS, and then 20 μL of lysis solution was added to shake and lyse for 5 min. The supernatant was transferred to a 96-well Costar whiteplate, and 70 μL of Dual-Glo luciferase substrate solution was added, and the relative fluorescence intensity of firefly luciferase was detected, and then 70 μL of Stop-Glo substrate solution was added, and the relative fluorescence intensity of sea kidney luciferase was detected, the normalized value was obtained, and the inhibition rate and IC50 value were calculated.

A further experiment deals with p-STAT3 (Tyr705). Description: Western blotting of p-STAT3 expression in DU145 cells. The format is cell-based, human. Here is the method: DU145 cells treated for 16 h with different concentrations of examples 12, 23, 33 and 34 and DU145 cells in control group were collected and washed twice with pre-cooled PBS. After appropriate amount of RIPA lysate (50 mM Tris-HCl, 1 mM EDTA, 1% Triton X-100, 150 mM NaCl, 0.1% SDS, 1 mM NaF, Na3VO4, protease inhibitor, pH 7.4) was added to lyse for 1 h on ice, the reaction mixture was centrifuged at 4° C., 12,000 rpm for 20 min, and then the supernatant was collected for protein quantification and boiled for denaturation. Equal amount of protein was taken for 10% SDS-PAGE electrophoresis. The specific antibodies of p-STAT3 (Tyr705) and STAT3 were used as primary antibody, which was incubated overnight at 4° C. The corresponding HRP-labeled secondary antibody was used, incubated at room temperature for 2 h, and washed. ECL chemiluminescence substrate reaction solution was added to develop in gel imaging system, and the image was saved. (3-actin was used as internal reference.
On the technique in general: A western blot detects proteins with antibodies after separation by electrophoresis.

Molecules are shown by their SMILES.

As a reminder, the IC50 is the concentration that inhibits the measured activity by half.

In the case of `Cc1ccc(S(=O)(=O)Nc2cccc(C(=O)NCc3cccnc3)c2)cc1` [Example 2, 3-((4-methylphenyl)sulfonamido)-N-(pyridin-3-ylmethyl)benzamide], in experiment [1], the half-maximal inhibitory concentration (IC50) is 0.7 ± 0.15 µM.

Regarding `Cc1ccc(S(=O)(=O)Nc2cc(C(=O)NCc3cccnc3)ccc2F)cc1` [Example 3, 4-fluoro-3-((4-methylphenyl)sulfonamido)-N-(pyridin-3-ylmethyl) benzamide], the IC50 in experiment [1] is 0.79 ± 0.13 µM.

`Cc1ccc(S(=O)(=O)Nc2cc(C(=O)NCc3cccnc3)ccc2Cl)cc1` [Example 4, 4-chloro-3-((4-methylphenyl)sulfonamido)-N-(pyridin-3-ylmethyl) benzamide]: the IC50 in experiment [1] turned out to be 0.8 ± 0.12 µM. Consider `CCc1ccc(C(=O)NCc2cccnc2)cc1NS(=O)(=O)c1ccc(C)cc1` [Example 6, 4-ethyl-3-((4-methylphenyl)sulfonamido)-N-(pyridin-3-ylmethyl)benzamide], for which the half-inhibitory concentration (IC50) in experiment [1] was 0.86 ± 0.08 µM. In addition, in the experiment with STAT3 transcription, the “STAT3 transcription inhibition activity” value is reported as “obvious STAT3 transcription inhibition activity” and the IC50 came out at 9.7 ± 1.3 µM. In the case of `Cc1ccc(S(=O)(=O)Nc2cc(C)cc(C(=O)NCc3cccnc3)c2)cc1` [Example 7, 3-methyl-5-((4-methylphenyl)sulfonamido)-N-(pyridin-3-ylmethyl)benzamide], the IC50 in experiment [1] stood at 0.34 ± 0.01 µM. Regarding `Cc1ccc(S(=O)(=O)Nc2cc(F)cc(C(=O)NCc3cccnc3)c2)cc1` [Example 9, 3-fluoro-5-((4-methylphenyl)sulfonamido)-N-(pyridin-3-ylmethyl)benzamide], the IC50 in experiment [1] came to 0.9 ± 0.02 µM. In addition, in the experiment with STAT3 transcription, the “STAT3 transcription inhibition activity” value was “obvious STAT3 transcription inhibition activity” and the concentration for half-maximal inhibition (IC50) was found to be 6.2 ± 0.3 µM. As for `Cc1ccc(S(=O)(=O)Nc2cc(Cl)cc(C(=O)NCc3cccnc3)c2)cc1` [Example 10, 3-chloro-5-((4-methylphenyl)sulfonamido)-N-(pyridin-3-ylmethyl)benzamide], in experiment [1], the concentration for half-maximal inhibition (IC50) turned out to be 0.34 ± 0.01 µM.

Turning to `Cc1ccc(S(=O)(=O)Nc2ccc(C)c(C(=O)NCc3cccnc3)c2)cc1` [Example 11, 2-methyl-5-((4-methylphenyl)sulfonamido)-N-(pyridin-3-ylmethyl)benzamide], the IC50 in experiment [1] was found to be 2 ± 0.03 µM.

Take `COc1ccc(S(=O)(=O)Nc2cc(C(=O)NCc3cccnc3)ccc2C)cc1` [Example 13, 3-((4-methoxyphenyl)sulfonamido)-4-methyl-N-(pyridin-3-ylmethyl)benzamide]: the half-maximal inhibitory concentration (IC50) in experiment [1] came to 0.18 ± 0.08 µM. In the experiment on STAT3 transcription, the “STAT3 transcription inhibition activity” value is given as “obvious STAT3 transcription inhibition activity” and half-maximal inhibition (IC50) was put at 10 ± 2.1 µM. Take `COc1cccc(S(=O)(=O)Nc2cc(C(=O)NCc3cccnc3)ccc2C)c1` [Example 14, 3-((3-methoxyphenyl)sulfonamido)-4-methyl-N-(pyridin-3-ylmethyl)benzamide]: in experiment [1], the 50% inhibitory concentration (IC50) is 2.5 ± 0.02 µM. Same read-out and setting: the figure for `CCOc1ccc(S(=O)(=O)Nc2cc(C(=O)NCc3cccnc3)ccc2C)cc1` [Example 15, 3-((4-ethoxyphenyl)sulfonamido)-4-methyl-N-(pyridin-3-ylmethyl)benzamide] is 0.86 ± 0.06 µM; for `Cc1ccc(S(=O)(=O)Nc2cc(C(=O)NCc3cccnc3)ccc2C)cc1C` [Example 16, 3-((3,4-dimethylphenyl)sulfonamido)-4-methyl-N-(pyridin-3-ylmethyl)benzamide] it is 0.97 ± 0.03 µM. With `Cc1ccc(S(=O)(=O)Nc2cc(C(=O)NCc3cccnc3)ccc2C)c(C)c1` [Example 17, 3-((2,4-dimethylphenyl)sulfonamido)-4-methyl-N-(pyridinylmethyl)benzamide], the half-inhibitory concentration (IC50) turned out to be 0.5 ± 0.04 µM in experiment [1] and 8.2 ± 0.02 µM with STAT3 transcription. As for `Cc1ccc(C(=O)NCc2cccnc2)cc1NS(=O)(=O)c1ccc(F)cc1` [Example 20, 3-((4-fluorophenyl)sulfonamido)-4-methyl-N-(pyridin-3-ylmethyl)benzamide], the IC50 in experiment [1] is 3.47 ± 1.22 µM; with STAT3 transcription it was 15 ± 1.4 µM. In the experiment with STAT3 transcription, the “STAT3 transcription inhibition activity” value is reported as “obvious STAT3 transcription inhibition activity”.

Regarding `Cc1ccc(C(=O)NCc2cccnc2)cc1NS(=O)(=O)c1ccc(Cl)cc1` [Example 21, 3-((4-chlorophenyl)sulfonamido)-4-methyl-N-(pyridin-3-ylmethyl)benzamide], the IC50 in experiment [1] came out at 0.93 ± 0.05 µM.

Regarding `Cc1ccc(C(=O)NCc2cccnc2)cc1NS(=O)(=O)c1ccc(C(C)C)cc1` [Example 22, 3-((4-isopropylphenyl)sulfonamido)-4-methyl-N-(pyridin-3-ylmethyl)benzamide], the half-maximal inhibitory concentration (IC50) in experiment [1] came to 1 ± 0.16 µM. Consider `Cc1ccc(C(=O)NCc2cccnc2)cc1NS(=O)(=O)c1ccc(C2CC2)cc1` [Example 23, 3-((4-cyclopropylphenyl)sulfonamido)-4-methyl-N-(pyridin-3-ylmethyl)benzamide], for which, in experiment [1], the IC50 is 0.05 ± 0.008 µM. For the same molecule, the “inhibitory activity on STAT3 phosphorylation” value in the experiment with p-STAT3 (Tyr705) (DU145, 0.5 μM concentration) is “obvious inhibitory activity”. Further, in the experiment on STAT3 transcription, the “STAT3 transcription inhibition activity” value was “obvious STAT3 transcription inhibition activity” and the 50% inhibitory concentration (IC50) came to 1 µM. As for `Cc1ccc(C(=O)NCc2cccnc2)cc1NS(=O)(=O)c1ccc2c(c1)CCC2` [Example 25, 3-((2,3-dihydro-1H-indene)-5-sulfonamido)-4-methyl-N-(pyridinylmethyl)benzamide], the 50% inhibitory concentration (IC50) in experiment [1] stood at 0.9 ± 0.04 µM. As for `Cc1ccc(C(=O)NCc2cccnc2)cc1NS(=O)(=O)c1ccc2c(c1)OCO2` [Example 26, 3-(benzo[d][1,3]dioxole-5-sulfonamido)-4-methyl-N-(pyridin-3-ylmethyl)benzamide], the half-inhibitory concentration (IC50) in experiment [1] came to 0.61 ± 0.14 µM.

On to `Cc1ccc(C(=O)NCc2cccnc2)cc1NS(=O)(=O)c1ccc2c(c1)CCO2` [Example 27, 3-((2,3-dihydrobenzofuran)-5-sulfonamido)-4-methyl-N-(pyridin-3-ylmethyl)benzamide], for which, in experiment [1], the IC50 was found to be 1.2 ± 0.01 µM. In the case of `Cc1ccc(C(=O)NCc2cccnc2)cc1NS(=O)(=O)c1ccc2c(c1)OCCO2` [Example 28, 3-((2,3-dihydrobenzo[b][1,4]dioxine)-6-sulfonamido)-4-methyl-N-(pyridin-3-ylmethyl)benzamide], the IC50 in experiment [1] worked out at 0.42 ± 0.01 µM. As to `Cc1ccc(C(=O)NCc2cccnc2)cc1NS(=O)(=O)c1ccc2ccccc2c1` [Example 29, 4-methyl-3-(naphthalene-2-sulfonamido)-N-(pyridin-3-ylmethyl)benzamide], the IC50 in experiment [1] came out at 1 ± 0.07 µM. Regarding `Cc1ccc(S(=O)(=O)Nc2cc(C(=O)NCc3cccnc3)ccc2C)s1` [Example 30, 4-methyl-3-((5-methylthiophene)-2-sulfonamido)-N-(pyridin-3-ylmethyl)benzamide], in experiment [1], the IC50 was 1.2 ± 0.03 µM. Further, in the experiment with STAT3 transcription, the “STAT3 transcription inhibition activity” value is listed as “obvious STAT3 transcription inhibition activity” and half-maximal inhibition (IC50) required 17.5 ± 0.3 µM. As for `COc1ccc(S(=O)(=O)Nc2cc(C(=O)NCc3cccnc3)ccc2C)cn1` [Example 32, 3-((6-methoxypyridine)-3-sulfonamido)-4-methyl-N-(pyridin-3-ylmethyl)benzamide], the IC50 in experiment [1] came to 0.4 ± 0.02 µM. Turning to `COc1ccc(CNC(=O)c2ccc(C)c(NS(=O)(=O)c3ccc(C)cc3)c2)cn1` [Example 34, N-((6-methoxypyridin-3-yl)methyl)-4-methyl-3-((4-methylphenyl)sulfonamido)benzamide], the IC50 in experiment [1] came to 0.006 ± 0.002 µM; in the experiment with STAT3 transcription it was 0.8 ± 0.27 µM. Further, in the experiment with p-STAT3 (Tyr705) (DU145, 0.1 μM concentration), the “inhibitory activity on STAT3 phosphorylation” value is recorded as “obvious inhibitory activity”. For the same molecule, the “STAT3 transcription inhibition activity” value in the experiment with STAT3 transcription is “obvious STAT3 transcription inhibition activity”. For the molecule `Cc1ccc(S(=O)(=O)Nc2cc(C(=O)NCc3ccc(C(F)(F)F)nc3)ccc2C)cc1` [Example 35, 4-methyl-3-((4-methylphenyl)sulfonamido)-N-((6-(trifluoromethyl)pyridin-3-yl)methyl)benzamide], the 50% inhibitory concentration (IC50) in experiment [1] amounted to 0.2 ± 0.07 µM. Further, in the experiment on STAT3 transcription, the “STAT3 transcription inhibition activity” value is “obvious STAT3 transcription inhibition activity” and it took 8 µM to reach half-maximal inhibition (IC50).
